According to paper PMC9954146, “Anti-Leukaemic Activity of Rilpivirine Is Mediated by Aurora A Kinase Inhibition” (Cancers, 2023):

Assays:
Assay in all cases: Kinase panel
Type in all cases: biochemical
[1] = target: T1, AMPKα2(h) (Homo sapiens, UniProt P54646); conditions: read-out: % Residual Activity
T1 construct: purchased Eurofins (KinaseProfiler)
How it was run: (§1)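 Selectivity panel (kinome-wide), rilpivirine as test compound. Readout: radiolabel incorporation. ATP = Km of the respective kinase. Ki calculated from IC50 (Cheng–Prusoff).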

[2] = target: T2, Abl (M351T)(h) (Homo sapiens, UniProt P00519, M351T); conditions: read-out: % Residual Activity
T2 construct: purchased Eurofins (KinaseProfiler)
How it was run: as §1

[3] = target: T3, BTK(h) (Homo sapiens, UniProt Q06187); conditions: read-out: % Residual Activity
T3 construct: purchased Eurofins (KinaseProfiler)
How it was run: as §1

[4] = target: T4, Blk(m) (Mus musculus, UniProt P16277); conditions: read-out: % Residual Activity
T4 construct: purchased Eurofins (KinaseProfiler)
How it was run: as §1

[5] = target: T5, CDK14/cyclinY(h) (Homo sapiens, UniProt O94921); conditions: read-out: % Residual Activity
T5 construct: purchased Eurofins (KinaseProfiler)
How it was run: as §1

[6] = target: T6, CDK2/cyclinA(h) (Homo sapiens, UniProt P24941); conditions: read-out: % Residual Activity
T6 construct: purchased Eurofins (KinaseProfiler)
How it was run: as §1

[7] = target: T7, CLK1(h) (Homo sapiens, UniProt P49759); conditions: read-out: % Residual Activity
T7 construct: purchased Eurofins (KinaseProfiler)
How it was run: as §1

[8] = target: T8, DAPK1(h) (Homo sapiens, UniProt P53355); conditions: read-out: % Residual Activity
T8 construct: purchased Eurofins (KinaseProfiler)
How it was run: as §1

[9] = target: T9, ErbB2(h) (Homo sapiens, UniProt P04626); conditions: read-out: % Residual Activity
T9 construct: purchased Eurofins (KinaseProfiler)
How it was run: as §1

[10] = target: T10, GCN2(h) (Homo sapiens, UniProt Q9P2K8); conditions: read-out: % Residual Activity
T10 construct: purchased Eurofins (KinaseProfiler)
T10 sequence (Q9P2K8 whole entry): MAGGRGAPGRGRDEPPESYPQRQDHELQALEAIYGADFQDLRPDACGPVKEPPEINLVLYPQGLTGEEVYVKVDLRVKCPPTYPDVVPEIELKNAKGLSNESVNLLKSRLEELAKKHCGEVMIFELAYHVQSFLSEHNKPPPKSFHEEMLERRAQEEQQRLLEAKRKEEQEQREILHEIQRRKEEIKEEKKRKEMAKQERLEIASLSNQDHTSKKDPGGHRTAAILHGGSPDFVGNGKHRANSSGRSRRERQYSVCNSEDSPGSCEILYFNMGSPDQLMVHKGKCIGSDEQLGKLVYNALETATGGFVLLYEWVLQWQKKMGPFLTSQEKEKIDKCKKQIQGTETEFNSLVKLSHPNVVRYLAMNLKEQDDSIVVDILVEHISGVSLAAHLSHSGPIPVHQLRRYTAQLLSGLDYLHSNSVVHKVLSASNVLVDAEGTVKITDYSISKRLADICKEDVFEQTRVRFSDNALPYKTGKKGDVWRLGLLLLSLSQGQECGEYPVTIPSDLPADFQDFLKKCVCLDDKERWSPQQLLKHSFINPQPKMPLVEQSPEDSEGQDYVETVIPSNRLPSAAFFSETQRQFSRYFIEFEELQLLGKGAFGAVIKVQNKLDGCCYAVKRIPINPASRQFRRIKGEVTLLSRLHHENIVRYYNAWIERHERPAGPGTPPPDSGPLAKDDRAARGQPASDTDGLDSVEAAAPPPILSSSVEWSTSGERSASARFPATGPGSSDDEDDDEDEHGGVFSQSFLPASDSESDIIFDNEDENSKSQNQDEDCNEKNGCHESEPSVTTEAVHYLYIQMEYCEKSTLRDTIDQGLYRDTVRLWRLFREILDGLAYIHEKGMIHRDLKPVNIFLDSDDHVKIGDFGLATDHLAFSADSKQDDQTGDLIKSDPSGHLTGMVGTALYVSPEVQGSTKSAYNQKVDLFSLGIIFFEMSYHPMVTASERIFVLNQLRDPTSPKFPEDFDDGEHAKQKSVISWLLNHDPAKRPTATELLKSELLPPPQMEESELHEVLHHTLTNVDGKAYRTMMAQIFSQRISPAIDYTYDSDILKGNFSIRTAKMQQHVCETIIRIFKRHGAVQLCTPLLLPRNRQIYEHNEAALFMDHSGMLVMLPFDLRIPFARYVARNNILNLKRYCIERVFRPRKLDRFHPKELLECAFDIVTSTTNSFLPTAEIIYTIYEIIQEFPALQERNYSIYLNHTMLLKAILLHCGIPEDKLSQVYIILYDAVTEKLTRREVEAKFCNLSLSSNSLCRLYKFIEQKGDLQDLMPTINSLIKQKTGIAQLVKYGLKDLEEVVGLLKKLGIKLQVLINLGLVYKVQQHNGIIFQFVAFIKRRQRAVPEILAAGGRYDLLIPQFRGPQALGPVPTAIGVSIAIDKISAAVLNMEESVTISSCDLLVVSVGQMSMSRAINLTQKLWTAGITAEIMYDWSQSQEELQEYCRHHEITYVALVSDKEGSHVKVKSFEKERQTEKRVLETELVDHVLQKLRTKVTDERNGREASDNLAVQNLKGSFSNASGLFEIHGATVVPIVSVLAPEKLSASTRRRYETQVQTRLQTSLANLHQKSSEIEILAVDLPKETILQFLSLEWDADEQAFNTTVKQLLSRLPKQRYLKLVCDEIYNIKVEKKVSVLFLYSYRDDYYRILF
How it was run: as §1

[11] = target: T11, GRK1(h) (Homo sapiens, UniProt Q15835); conditions: read-out: % Residual Activity
T11 construct: purchased Eurofins (KinaseProfiler)
How it was run: as §1

[12] = target: T12, Hck(h) activated (Homo sapiens, UniProt P08631); conditions: read-out: % Residual Activity
T12 construct: purchased Eurofins (KinaseProfiler)
How it was run: as §1

[13] = target: T13, IR(h), activated (Homo sapiens, UniProt P06213); conditions: read-out: % Residual Activity
T13 construct: purchased Eurofins (KinaseProfiler)
How it was run: as §1

[14] = target: T14, Itk(h) (Homo sapiens, UniProt Q08881); conditions: read-out: % Residual Activity
T14 construct: purchased Eurofins (KinaseProfiler)
How it was run: as §1

[15] = target: T15, JAK3(h) (Homo sapiens, UniProt P52333); conditions: read-out: % Residual Activity
T15 construct: purchased Eurofins (KinaseProfiler)
How it was run: as §1

[16] = target: T16, MAP4K5(h) (Homo sapiens, UniProt Q9Y4K4); conditions: read-out: % Residual Activity
T16 construct: purchased Eurofins (KinaseProfiler)
How it was run: as §1

[17] = target: T17, MLCK(h) (Homo sapiens, UniProt Q15746); conditions: read-out: % Residual Activity
T17 construct: purchased Eurofins (KinaseProfiler)
How it was run: as §1

[18] = target: T18, MOK(h) (Homo sapiens, UniProt Q9UQ07); conditions: read-out: % Residual Activity
T18 construct: purchased Eurofins (KinaseProfiler)
How it was run: as §1

[19] = target: T19, Mer(h) (Homo sapiens, UniProt Q12866); conditions: read-out: % Residual Activity
T19 construct: purchased Eurofins (KinaseProfiler)
How it was run: as §1

[20] = target: T20, Met(Y1248C)(h) (Homo sapiens, UniProt P08581, Y1230C); conditions: read-out: % Residual Activity
T20 construct: purchased Eurofins (KinaseProfiler)
How it was run: as §1

[21] = target: T21, MuSK(h) (Homo sapiens, UniProt O15146); conditions: read-out: % Residual Activity
T21 construct: purchased Eurofins (KinaseProfiler)
How it was run: as §1

[22] = target: T22, PASK(h) (Homo sapiens, UniProt Q96RG2); conditions: read-out: % Residual Activity
T22 construct: purchased Eurofins (KinaseProfiler)
How it was run: as §1

[23] = target: T23, PDHK2(h) (Homo sapiens, UniProt Q15119); conditions: read-out: % Residual Activity
T23 construct: purchased Eurofins (KinaseProfiler)
How it was run: as §1

[24] = target: T24, PDHK4(h) (Homo sapiens, UniProt Q16654); conditions: read-out: % Residual Activity
T24 construct: purchased Eurofins (KinaseProfiler)
T24 sequence (Q16654 whole entry): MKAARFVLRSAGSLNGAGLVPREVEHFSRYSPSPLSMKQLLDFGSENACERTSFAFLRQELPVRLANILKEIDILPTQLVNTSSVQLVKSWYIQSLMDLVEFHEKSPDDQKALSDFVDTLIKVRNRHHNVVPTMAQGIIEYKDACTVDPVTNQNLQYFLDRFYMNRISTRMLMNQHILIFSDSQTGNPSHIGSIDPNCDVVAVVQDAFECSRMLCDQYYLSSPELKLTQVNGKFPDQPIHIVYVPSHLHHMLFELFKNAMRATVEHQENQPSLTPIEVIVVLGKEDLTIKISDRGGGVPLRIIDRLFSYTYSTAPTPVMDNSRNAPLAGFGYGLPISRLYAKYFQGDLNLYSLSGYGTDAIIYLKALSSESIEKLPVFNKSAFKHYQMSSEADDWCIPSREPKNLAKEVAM
How it was run: as §1

[25] = target: PI3 Kinase (p110a/p65a)(h) (Homo sapiens, UniProt P42336); conditions: read-out: % Residual Activity
PI3 Kinase (p110a/p65a)(h), sequence (P42336 whole entry): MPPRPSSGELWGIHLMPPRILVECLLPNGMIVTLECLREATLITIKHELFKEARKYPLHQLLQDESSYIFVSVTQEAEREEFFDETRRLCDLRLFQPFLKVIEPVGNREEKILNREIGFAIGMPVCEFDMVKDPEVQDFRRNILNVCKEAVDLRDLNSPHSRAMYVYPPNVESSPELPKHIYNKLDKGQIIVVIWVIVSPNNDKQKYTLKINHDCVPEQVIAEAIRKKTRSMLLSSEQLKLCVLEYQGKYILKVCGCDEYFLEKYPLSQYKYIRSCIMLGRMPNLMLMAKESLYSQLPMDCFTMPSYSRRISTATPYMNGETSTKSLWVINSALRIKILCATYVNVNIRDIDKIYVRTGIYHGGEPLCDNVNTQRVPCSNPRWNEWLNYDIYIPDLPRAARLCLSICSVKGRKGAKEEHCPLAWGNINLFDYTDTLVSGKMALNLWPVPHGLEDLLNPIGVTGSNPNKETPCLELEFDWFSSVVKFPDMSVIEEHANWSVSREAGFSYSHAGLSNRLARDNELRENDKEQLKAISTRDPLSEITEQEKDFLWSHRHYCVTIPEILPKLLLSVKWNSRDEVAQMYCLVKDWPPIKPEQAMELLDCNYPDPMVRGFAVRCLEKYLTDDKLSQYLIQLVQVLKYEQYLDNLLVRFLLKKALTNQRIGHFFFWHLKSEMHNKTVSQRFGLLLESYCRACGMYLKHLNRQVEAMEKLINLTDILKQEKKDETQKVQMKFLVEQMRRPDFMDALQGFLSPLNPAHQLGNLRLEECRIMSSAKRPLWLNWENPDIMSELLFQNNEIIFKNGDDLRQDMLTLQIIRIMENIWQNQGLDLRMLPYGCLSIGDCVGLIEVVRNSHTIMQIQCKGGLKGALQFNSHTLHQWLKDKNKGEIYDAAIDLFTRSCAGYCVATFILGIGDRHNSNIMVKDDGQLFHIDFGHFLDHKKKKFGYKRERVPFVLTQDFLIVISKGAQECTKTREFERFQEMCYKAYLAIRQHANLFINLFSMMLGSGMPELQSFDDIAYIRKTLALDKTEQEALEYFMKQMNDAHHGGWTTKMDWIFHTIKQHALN
How it was run: as §1

[26] = target: PI3KC2a(h) (Homo sapiens, UniProt O00443); conditions: read-out: % Residual Activity
How it was run: as §1

[27] = target: T25, PKCμ(h) (Homo sapiens, UniProt Q15139); conditions: read-out: % Residual Activity
T25 construct: purchased Eurofins (KinaseProfiler)
How it was run: as §1

[28] = target: T26, PKD2(h) (Homo sapiens, UniProt Q9BZL6); conditions: read-out: % Residual Activity
T26 construct: purchased Eurofins (KinaseProfiler)
How it was run: as §1

[29] = target: T27, PRKG2(h) (Homo sapiens, UniProt Q13237); conditions: read-out: % Residual Activity
T27 construct: purchased Eurofins (KinaseProfiler)
T27 sequence (Q13237 whole entry): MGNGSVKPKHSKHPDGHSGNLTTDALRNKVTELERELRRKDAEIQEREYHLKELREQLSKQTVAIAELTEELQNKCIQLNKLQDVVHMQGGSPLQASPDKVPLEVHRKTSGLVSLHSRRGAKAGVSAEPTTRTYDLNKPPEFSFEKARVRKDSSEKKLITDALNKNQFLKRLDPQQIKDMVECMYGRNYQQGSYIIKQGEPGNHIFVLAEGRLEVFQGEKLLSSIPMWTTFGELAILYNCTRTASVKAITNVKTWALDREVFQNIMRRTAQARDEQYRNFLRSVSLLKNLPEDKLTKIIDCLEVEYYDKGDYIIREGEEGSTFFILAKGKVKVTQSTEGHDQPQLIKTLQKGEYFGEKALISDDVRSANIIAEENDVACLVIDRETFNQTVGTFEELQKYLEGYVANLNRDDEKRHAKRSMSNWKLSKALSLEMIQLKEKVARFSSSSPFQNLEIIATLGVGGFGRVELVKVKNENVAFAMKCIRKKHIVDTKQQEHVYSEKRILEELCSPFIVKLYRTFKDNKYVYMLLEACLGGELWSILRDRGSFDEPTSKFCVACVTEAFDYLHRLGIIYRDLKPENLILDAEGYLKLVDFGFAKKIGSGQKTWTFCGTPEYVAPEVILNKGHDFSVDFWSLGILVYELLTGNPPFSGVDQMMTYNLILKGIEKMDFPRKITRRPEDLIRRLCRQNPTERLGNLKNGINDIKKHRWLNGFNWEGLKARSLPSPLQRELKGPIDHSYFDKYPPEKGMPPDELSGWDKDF
How it was run: as §1

[30] = target: T28, PhKγ2(h) (Homo sapiens, UniProt P15735); conditions: read-out: % Residual Activity
T28 construct: purchased Eurofins (KinaseProfiler)
How it was run: as §1

[31] = target: T29, Plk1(h) (Homo sapiens, UniProt P53350); conditions: read-out: % Residual Activity
T29 construct: purchased Eurofins (KinaseProfiler)
How it was run: as §1

[32] = target: T30, Plk4(h) (Homo sapiens, UniProt O00444); conditions: read-out: % Residual Activity
T30 construct: purchased Eurofins (KinaseProfiler)
How it was run: as §1

[33] = target: T31, ROCK-II(r) (Rattus norvegicus, UniProt Q62868); conditions: read-out: % Residual Activity
T31 construct: purchased Eurofins (KinaseProfiler)
How it was run: as §1

[34] = target: T32, SIK2(h) (Homo sapiens, UniProt Q9H0K1); conditions: read-out: % Residual Activity
T32 construct: purchased Eurofins (KinaseProfiler)
How it was run: as §1

[35] = target: T33, SRPK2(h) (Homo sapiens, UniProt P78362); conditions: read-out: % Residual Activity
T33 construct: purchased Eurofins (KinaseProfiler)
How it was run: as §1

[36] = target: T34, STK25(h) (Homo sapiens, UniProt O00506); conditions: read-out: % Residual Activity
T34 construct: purchased Eurofins (KinaseProfiler)
How it was run: as §1

[37] = target: T35, Src(T341M)(h) (Homo sapiens, UniProt P12931, T341M); conditions: read-out: % Residual Activity
T35 construct: purchased Eurofins (KinaseProfiler)
T35 sequence (P12931 whole entry T341M): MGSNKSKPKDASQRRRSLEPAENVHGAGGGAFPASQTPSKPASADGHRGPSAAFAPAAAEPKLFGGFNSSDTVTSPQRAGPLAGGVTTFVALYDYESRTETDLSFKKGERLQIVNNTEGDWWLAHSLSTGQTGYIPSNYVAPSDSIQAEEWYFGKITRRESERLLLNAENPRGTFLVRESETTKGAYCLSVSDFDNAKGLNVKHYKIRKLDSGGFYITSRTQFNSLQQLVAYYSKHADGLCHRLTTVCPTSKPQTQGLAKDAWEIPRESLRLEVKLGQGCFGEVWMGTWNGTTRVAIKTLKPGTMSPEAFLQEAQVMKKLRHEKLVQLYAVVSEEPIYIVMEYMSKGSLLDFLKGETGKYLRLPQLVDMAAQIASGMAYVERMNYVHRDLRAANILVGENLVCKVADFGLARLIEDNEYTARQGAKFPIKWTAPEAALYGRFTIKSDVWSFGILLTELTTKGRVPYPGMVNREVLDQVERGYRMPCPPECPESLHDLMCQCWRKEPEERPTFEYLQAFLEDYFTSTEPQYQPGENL
How it was run: as §1

[38] = target: T36, Yes(h) (Homo sapiens, UniProt P07947)
T36 construct: purchased Eurofins (KinaseProfiler)
T36 sequence (P07947 whole entry): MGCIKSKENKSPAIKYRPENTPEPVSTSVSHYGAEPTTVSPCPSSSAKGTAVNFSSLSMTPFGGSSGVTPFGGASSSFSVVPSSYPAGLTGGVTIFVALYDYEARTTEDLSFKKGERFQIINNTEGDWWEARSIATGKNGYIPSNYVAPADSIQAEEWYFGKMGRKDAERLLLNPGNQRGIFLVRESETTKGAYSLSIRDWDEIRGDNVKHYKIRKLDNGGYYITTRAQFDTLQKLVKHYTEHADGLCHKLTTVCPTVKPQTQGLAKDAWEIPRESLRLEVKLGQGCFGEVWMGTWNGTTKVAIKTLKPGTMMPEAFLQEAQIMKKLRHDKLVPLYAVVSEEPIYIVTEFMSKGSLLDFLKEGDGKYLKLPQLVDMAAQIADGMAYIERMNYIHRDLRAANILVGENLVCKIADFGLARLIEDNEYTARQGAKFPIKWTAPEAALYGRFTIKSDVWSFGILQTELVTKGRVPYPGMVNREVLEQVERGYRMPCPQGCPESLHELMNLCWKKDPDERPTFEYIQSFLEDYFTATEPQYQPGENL
How it was run: as §1

Cc1cc(/C=C/C#N)cc(C)c1Nc1ccnc(Nc2ccc(C#N)cc2)n1 [rilpivirine, (E)-4-((4-((4-(2-cyanoethenyl)-2,6-dimethylphenyl)amino)pyrimidin-2-yl)amino)benzonitrile]
remaining activity at 1 µM [1]: 48% | remaining activity at 1 µM [2]: 74% | remaining activity at 1 µM [3]: 90% | remaining activity at 1 µM [4]: 75% | remaining activity at 1 µM [5]: 91% | remaining activity at 1 µM [6]: 87% | remaining activity at 1 µM [7]: 48% | remaining activity at 1 µM [8]: 83% | remaining activity at 1 µM [9]: 116% | remaining activity at 1 µM [10]: 93% | remaining activity at 1 µM [11]: 103% | remaining activity at 1 µM [12]: 63% | remaining activity at 1 µM [13]: 85% | remaining activity at 1 µM [14]: 91% | remaining activity at 1 µM [15]: 68% | remaining activity at 1 µM [16]: 34% | remaining activity at 1 µM [17]: 95% | remaining activity at 1 µM [18]: 92% | remaining activity at 1 µM [19]: 74% | remaining activity at 1 µM [20]: 100% | remaining activity at 1 µM [21]: 96% | remaining activity at 1 µM [22]: 85% | remaining activity at 1 µM [23]: 90% | remaining activity at 1 µM [24]: 94% | remaining activity at 1 µM [25]: 93% | remaining activity at 1 µM [26]: 94% | remaining activity at 1 µM [27]: 98% | remaining activity at 1 µM [28]: 115% | remaining activity at 1 µM [29]: 92% | remaining activity at 1 µM [30]: 83% | remaining activity at 1 µM [31]: 107% | remaining activity at 1 µM [32]: 85% | remaining activity at 1 µM [33]: 94% | remaining activity at 1 µM [34]: 57% | remaining activity at 1 µM [35]: 91% | remaining activity at 1 µM [36]: 95% | remaining activity at 1 µM [37]: 78% | inhibition at 1 µM ([38]; YES, read-out: inhibitory activity): > 70% | remaining activity at 1 µM ([38]; read-out: % Residual Activity): 17%
